Values quoted from earlier work, collected in US20220160619A1, “Effervescent Drug Formulations” (Complete Medical Solutions, LLC, priority 2020, published 2022).

Conditions: long-term metformin therapy in addition to dietary management

SMILES: CN(C)C(=N)N=C(N)N [metformin]
- diabetic patients with cobalamin malabsorption: 30%
